{
  "source": "ChEMBL document CHEMBL1201862",
  "about": "“PubChem BioAssay data set” (2004)",
  "key": {"[1]": {"molecular_target": "T1, Peroxisome proliferator-activated receptor gamma (Homo sapiens, UniProt P37231)", "T1 sequence (P37231 whole entry)": "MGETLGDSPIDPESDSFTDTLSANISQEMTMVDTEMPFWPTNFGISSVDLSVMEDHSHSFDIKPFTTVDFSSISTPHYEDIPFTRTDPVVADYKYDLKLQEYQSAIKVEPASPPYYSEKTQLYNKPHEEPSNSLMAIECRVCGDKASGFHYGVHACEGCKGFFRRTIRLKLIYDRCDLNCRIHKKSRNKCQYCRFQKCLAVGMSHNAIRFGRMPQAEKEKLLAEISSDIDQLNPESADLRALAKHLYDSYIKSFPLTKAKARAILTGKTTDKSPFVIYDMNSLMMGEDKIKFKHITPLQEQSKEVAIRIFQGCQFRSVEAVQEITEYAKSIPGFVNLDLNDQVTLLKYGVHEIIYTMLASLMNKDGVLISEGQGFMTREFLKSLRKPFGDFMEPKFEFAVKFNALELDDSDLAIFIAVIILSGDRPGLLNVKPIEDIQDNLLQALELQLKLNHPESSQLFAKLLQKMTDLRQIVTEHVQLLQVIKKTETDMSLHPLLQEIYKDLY", "test": "PPARg ligand-binding domain binders, dose response, PPARg partial agonist project, biochemical, TR-FRET, LanthaScreen (AID 504446)"}, "[2]": {"molecular_target": "T1, Peroxisome proliferator-activated receptor gamma", "test": "PPARg ligand-binding domain binders, dose response, PPARg partial agonist project, biochemical, fluorescence polarization, PolarScreen (AID 504453)"}, "[3]": {"molecular_target": "T1, Peroxisome proliferator-activated receptor gamma", "test": "PPARg partial agonists, dose response, cell-based, luminescence, assay provider (AID 504447)", "type": "functional"}, "[4]": {"molecular_target": "T2, G-protein coupled receptor 35 (Homo sapiens, UniProt Q9HC97)", "T2 sequence (Q9HC97 whole entry)": "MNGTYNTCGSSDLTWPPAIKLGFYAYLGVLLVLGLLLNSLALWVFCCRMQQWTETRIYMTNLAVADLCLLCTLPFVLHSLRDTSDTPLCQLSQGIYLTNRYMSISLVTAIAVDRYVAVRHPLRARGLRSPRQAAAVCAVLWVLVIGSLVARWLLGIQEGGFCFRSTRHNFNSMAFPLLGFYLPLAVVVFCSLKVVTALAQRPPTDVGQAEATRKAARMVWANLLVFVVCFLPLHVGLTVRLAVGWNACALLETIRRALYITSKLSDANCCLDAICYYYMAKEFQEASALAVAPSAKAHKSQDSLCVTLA", "test": "SAR analysis of Agonists of the GPR35 Receptor using an Image-Based Assay - Set 4. [Related pubchem assays (depositor defined):AID2013, AID2026]", "type": "functional"}, "[5]": {"molecular_target": "G-protein coupled receptor 55 (Homo sapiens, UniProt Q9Y2T6)", "sequence (Q9Y2T6 whole entry)": "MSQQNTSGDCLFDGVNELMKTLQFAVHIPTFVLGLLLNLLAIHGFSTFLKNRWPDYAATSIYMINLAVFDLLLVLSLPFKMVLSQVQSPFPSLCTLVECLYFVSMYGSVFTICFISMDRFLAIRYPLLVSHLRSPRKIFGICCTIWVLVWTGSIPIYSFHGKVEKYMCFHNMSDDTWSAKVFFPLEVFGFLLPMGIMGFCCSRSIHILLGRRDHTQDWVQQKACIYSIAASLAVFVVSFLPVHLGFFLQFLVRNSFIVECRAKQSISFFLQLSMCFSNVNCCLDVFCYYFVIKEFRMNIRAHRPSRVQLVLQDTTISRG", "test": "SAR Analysis of Selective Antagonists of GPR55 using an Image-Based Assay - Set 4. [Related pubchem assays (depositor defined):AID2013, AID2026]", "type": "functional"}, "Cannabinoid receptor 2 [6]": {"molecular_target": "T3, Cannabinoid receptor 2 (Homo sapiens, UniProt P34972)", "T3 sequence (P34972 whole entry)": "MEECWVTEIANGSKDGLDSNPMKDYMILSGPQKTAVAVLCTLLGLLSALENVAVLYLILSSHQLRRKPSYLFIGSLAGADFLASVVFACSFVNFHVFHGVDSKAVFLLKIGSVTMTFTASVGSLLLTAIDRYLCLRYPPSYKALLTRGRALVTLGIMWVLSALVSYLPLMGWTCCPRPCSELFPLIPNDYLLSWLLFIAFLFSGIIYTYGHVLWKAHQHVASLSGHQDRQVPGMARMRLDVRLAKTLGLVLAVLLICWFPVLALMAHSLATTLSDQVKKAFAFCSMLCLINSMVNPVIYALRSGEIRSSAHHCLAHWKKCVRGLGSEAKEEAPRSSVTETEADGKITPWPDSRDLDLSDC", "test": "SAR analysis of antagonists of the Cannabinoid Receptor 2 using an Image-Based Assay - Set 3. [Related pubchem assays (depositor defined):AID2013, AID2026]", "type": "functional"}, "[7]": {"molecular_target": "T2, G-protein coupled receptor 35", "test": "SAR analysis of Antagonists of the GPR35 Receptor using an Image-Based Assay - Set 6. [Related pubchem assays (depositor defined):AID2013, AID2026]", "type": "functional"}, "Cannabinoid receptor 1 [8]": {"molecular_target": "T4, Cannabinoid receptor 1 (Homo sapiens, UniProt P21554)", "T4 sequence (P21554 whole entry)": "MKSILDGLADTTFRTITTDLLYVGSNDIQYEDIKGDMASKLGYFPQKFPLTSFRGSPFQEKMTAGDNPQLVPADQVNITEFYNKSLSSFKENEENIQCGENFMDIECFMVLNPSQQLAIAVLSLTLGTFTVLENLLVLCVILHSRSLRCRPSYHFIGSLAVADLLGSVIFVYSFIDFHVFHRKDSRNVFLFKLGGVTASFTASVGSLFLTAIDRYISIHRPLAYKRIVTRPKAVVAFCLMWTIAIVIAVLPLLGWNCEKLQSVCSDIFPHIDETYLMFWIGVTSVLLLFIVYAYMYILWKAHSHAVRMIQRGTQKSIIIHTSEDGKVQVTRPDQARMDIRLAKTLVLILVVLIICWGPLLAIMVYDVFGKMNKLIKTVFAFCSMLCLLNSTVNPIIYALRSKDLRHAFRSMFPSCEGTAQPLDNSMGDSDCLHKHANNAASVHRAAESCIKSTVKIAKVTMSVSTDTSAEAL", "test": "SAR analysis of agonists of the Cannabinoid Receptor 1 using an Image-Based Assay - Set 4. [Related pubchem assays (depositor defined):AID2013, AID2026]", "type": "functional"}, "Cannabinoid receptor 1 [9]": {"molecular_target": "T4, Cannabinoid receptor 1", "test": "SAR analysis of antagonists of the Cannabinoid Receptor 1 using an Image-Based Assay - Set 4. [Related pubchem assays (depositor defined):AID2013, AID2026]", "type": "functional"}, "Cannabinoid receptor 2 [10]": {"molecular_target": "T3, Cannabinoid receptor 2", "test": "SAR analysis of agonists of the Cannabinoid Receptor 2 using an Image-Based Assay - Set 3. [Related pubchem assays (depositor defined):AID2013, AID2026]", "type": "functional"}, "Vero": {"test_system": "Vero", "test": "Vero cell cytotoxicity, cytotoxicity control for flavivirus capping enzyme inhibitors (AID 588742)", "type": "functional", "conditions": "Chlorocebus sabaeus"}, "Genome polyprotein": {"molecular_target": "Genome polyprotein (dengue virus type 2, UniProt P29990)", "sequence (P29990 2492-3391 limits assumed)": "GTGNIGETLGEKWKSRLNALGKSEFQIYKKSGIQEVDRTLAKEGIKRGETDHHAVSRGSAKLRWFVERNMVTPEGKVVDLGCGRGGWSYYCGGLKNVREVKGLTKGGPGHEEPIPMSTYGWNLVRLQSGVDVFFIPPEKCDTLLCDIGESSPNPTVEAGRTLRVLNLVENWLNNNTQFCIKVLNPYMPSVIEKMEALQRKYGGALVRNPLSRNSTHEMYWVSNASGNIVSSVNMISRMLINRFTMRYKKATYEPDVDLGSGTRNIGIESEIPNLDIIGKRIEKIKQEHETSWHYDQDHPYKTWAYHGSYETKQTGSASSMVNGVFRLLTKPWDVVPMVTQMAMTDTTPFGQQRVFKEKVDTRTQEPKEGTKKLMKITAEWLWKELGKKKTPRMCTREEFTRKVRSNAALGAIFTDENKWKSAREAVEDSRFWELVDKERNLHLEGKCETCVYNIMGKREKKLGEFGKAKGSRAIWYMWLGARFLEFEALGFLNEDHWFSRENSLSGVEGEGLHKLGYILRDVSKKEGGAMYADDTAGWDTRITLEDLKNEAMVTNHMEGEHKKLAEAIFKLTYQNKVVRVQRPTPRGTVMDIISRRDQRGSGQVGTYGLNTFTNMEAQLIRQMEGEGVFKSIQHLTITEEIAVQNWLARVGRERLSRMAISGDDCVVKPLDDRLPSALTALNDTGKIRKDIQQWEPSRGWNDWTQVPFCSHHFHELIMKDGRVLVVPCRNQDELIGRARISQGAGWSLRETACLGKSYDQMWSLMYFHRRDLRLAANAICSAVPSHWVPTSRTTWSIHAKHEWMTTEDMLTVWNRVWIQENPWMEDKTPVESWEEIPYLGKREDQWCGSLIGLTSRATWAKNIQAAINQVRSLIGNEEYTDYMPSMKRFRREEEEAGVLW", "test": "Dengue-2 NS5 methyltransferase inhibitors, primary screen, biochemical, confirmation dose response (AID 588689)", "type": "functional"}, "Protein RecA": {"molecular_target": "T5, Protein RecA (Mycobacterium tuberculosis, UniProt P9WHJ3)", "T5 sequence (P9WHJ3 whole entry)": "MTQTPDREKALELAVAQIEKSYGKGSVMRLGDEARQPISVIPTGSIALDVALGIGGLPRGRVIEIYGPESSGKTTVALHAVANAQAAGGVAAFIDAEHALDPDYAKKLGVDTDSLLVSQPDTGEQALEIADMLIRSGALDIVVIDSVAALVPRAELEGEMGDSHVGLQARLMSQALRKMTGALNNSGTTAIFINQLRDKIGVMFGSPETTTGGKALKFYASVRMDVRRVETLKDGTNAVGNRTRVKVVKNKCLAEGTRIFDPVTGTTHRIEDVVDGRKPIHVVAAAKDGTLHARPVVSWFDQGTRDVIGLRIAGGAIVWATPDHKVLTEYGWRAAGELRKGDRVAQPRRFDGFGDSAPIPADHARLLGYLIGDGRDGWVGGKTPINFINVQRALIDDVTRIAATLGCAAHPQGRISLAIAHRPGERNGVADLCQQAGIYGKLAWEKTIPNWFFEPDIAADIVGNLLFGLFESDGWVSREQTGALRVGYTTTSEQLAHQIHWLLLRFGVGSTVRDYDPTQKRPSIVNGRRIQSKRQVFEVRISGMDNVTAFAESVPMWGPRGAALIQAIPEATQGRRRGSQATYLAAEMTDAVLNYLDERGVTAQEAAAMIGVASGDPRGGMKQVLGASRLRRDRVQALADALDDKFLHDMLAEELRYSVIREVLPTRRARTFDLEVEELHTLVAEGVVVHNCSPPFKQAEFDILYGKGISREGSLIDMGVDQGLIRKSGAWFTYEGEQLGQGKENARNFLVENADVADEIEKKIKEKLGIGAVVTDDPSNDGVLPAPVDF", "test": "Fluorescence Cell-Free Homogeneous Dose Retest to Identify Inhibitors of RecA-Intein Splicing Activity. [Related pubchem assays (depositor defined):AID2097, AID2223, AID489010, AID492950]", "type": "functional"}, "[11]": {"molecular_target": "T6, Apoptotic protease-activating factor 1 (Homo sapiens, UniProt O14727)", "T6 sequence (O14727 whole entry)": "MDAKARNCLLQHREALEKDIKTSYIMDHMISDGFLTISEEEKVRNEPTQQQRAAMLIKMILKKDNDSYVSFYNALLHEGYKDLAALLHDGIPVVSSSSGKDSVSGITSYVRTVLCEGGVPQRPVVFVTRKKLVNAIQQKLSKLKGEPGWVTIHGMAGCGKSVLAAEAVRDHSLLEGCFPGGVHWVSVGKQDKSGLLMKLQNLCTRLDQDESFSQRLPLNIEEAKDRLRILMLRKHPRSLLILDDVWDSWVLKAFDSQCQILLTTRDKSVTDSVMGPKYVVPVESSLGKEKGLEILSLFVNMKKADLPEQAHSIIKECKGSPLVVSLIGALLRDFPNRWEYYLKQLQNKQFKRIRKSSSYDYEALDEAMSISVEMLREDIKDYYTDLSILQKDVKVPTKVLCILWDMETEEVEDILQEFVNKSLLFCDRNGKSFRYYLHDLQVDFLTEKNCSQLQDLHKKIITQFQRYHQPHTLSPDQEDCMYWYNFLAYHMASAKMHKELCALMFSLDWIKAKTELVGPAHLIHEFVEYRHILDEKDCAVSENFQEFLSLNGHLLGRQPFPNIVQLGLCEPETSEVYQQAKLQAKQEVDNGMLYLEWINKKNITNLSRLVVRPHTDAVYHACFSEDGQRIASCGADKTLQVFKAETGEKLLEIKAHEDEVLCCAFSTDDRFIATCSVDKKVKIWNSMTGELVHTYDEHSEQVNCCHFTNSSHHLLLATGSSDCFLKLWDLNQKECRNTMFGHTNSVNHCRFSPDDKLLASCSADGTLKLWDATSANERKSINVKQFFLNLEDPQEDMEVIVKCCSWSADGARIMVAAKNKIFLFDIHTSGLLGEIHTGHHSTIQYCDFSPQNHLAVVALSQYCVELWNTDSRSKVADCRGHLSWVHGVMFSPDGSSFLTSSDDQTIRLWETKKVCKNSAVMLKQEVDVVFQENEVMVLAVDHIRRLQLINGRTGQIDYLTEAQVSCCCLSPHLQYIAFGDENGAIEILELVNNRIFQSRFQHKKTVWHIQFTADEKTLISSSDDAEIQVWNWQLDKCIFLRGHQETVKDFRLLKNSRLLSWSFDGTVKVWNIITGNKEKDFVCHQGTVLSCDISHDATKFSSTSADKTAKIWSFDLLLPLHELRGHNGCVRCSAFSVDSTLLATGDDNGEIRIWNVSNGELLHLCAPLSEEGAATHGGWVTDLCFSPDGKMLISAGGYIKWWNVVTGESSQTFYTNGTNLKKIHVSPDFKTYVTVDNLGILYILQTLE", "type": "functional"}, "Hexokinase-1": {"molecular_target": "Hexokinase-1 (Homo sapiens, UniProt P19367)", "sequence (P19367 whole entry)": "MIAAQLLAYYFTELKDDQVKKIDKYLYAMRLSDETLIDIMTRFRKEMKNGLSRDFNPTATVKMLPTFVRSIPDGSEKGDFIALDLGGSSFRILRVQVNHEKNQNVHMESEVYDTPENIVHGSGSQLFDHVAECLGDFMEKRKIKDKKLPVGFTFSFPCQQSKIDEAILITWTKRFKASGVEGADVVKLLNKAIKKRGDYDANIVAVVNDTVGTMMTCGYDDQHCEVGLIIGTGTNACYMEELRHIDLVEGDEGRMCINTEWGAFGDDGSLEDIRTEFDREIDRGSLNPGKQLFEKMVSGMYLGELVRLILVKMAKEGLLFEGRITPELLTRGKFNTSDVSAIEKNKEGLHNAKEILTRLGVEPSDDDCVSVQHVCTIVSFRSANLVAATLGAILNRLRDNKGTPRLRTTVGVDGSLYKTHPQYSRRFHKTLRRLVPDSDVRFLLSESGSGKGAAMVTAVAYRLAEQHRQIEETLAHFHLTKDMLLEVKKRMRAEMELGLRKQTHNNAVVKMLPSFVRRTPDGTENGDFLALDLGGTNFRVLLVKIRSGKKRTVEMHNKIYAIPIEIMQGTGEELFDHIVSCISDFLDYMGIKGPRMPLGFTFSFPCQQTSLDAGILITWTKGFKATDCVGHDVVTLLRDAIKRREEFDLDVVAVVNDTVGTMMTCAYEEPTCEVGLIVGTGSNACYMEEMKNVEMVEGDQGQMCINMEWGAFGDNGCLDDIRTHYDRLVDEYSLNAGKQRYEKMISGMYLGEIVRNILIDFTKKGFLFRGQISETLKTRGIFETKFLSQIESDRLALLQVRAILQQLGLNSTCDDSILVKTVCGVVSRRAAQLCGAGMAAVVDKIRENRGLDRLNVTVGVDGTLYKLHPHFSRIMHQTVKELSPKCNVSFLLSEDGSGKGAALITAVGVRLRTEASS", "test": "hexokinase 1 activators, dose response, selectivity assay for HKDC1 activator project, biochemical (AID 504762)", "type": "functional"}, "Hexokinase HKDC1": {"molecular_target": "T7, Hexokinase HKDC1 (Homo sapiens, UniProt Q2TB90)", "T7 sequence (Q2TB90 whole entry)": "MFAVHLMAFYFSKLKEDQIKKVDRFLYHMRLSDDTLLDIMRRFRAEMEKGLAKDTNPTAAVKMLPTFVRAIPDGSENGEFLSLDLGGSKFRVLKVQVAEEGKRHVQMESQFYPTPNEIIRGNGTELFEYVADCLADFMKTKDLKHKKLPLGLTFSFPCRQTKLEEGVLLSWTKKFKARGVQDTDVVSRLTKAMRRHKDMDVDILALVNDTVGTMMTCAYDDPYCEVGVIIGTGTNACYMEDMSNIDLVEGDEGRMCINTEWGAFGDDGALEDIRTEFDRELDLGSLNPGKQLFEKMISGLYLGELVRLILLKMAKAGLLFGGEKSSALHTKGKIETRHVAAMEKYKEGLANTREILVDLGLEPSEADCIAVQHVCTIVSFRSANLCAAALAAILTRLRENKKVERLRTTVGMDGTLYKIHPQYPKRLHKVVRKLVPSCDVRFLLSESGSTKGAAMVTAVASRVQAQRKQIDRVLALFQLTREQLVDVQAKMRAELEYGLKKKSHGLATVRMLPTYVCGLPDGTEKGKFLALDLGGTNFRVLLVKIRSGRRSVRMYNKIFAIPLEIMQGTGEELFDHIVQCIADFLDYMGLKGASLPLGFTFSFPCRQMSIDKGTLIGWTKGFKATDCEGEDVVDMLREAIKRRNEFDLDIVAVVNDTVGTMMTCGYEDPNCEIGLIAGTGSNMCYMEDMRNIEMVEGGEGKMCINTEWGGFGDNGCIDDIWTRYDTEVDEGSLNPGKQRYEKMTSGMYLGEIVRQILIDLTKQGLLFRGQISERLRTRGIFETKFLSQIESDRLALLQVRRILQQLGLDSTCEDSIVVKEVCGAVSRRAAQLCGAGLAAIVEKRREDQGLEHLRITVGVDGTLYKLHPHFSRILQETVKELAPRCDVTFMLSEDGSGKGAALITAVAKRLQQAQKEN", "test": "HKDC1 hexokinase activators, dose response, biochemical, W721R variant (AID 504730)", "type": "functional"}, "[12]": {"molecular_target": "Intestinal-type alkaline phosphatase (Homo sapiens, UniProt P09923)", "sequence (P09923 whole entry)": "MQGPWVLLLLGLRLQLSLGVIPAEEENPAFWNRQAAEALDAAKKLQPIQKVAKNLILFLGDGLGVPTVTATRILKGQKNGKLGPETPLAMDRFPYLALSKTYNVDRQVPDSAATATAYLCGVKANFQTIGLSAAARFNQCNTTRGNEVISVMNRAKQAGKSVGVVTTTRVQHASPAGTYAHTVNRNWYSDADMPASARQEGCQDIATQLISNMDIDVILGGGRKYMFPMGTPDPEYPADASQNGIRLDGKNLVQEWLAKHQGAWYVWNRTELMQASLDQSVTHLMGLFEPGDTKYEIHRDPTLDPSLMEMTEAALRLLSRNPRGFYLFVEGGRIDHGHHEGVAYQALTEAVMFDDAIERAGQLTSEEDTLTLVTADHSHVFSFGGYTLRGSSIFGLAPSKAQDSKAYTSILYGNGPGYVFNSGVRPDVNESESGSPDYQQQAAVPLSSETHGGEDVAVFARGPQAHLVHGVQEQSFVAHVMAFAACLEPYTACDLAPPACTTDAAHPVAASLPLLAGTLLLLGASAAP", "test": "human intestinal alkaline phosphatase activators, dose response, biochemical, luminescence, uHTS hits (AID 463120)", "type": "functional"}},
  "note": "Active and inactive are the calls of the source.",
  "data": [
    {"smiles": "CC(=O)N1N=C(c2ccccc2)CC1c1cn(Cc2ccccc2)c2ccccc12", "note": "(configuration not stated)", "values": [
      {"measurement": "IC50", "setting": "[1]", "result": "0.748 µM (active)"},
      {"measurement": "IC50", "setting": "[2]", "result": "2 µM (active)"},
      {"measurement": "EC50", "setting": "[3]", "result": "1.2 µM (active)"}
    ]},
    {"smiles": "Cc1nc(N2CCN(C(=O)NCc3ccccc3)CC2)c2c3c(sc2n1)CCCC3", "values": [
      {"measurement": "EC50", "setting": "[4]", "result": "> 32 µM (inactive)"},
      {"measurement": "IC50", "setting": "[5]", "result": "13 µM (inactive)"},
      {"measurement": "IC50", "setting": "Cannabinoid receptor 2 [6]", "result": "> 15.2 µM (inactive)"},
      {"measurement": "IC50", "setting": "[7]", "result": "> 32 µM (inactive)"},
      {"measurement": "EC50", "setting": "Cannabinoid receptor 1 [8]", "result": "> 32 µM (inactive)"},
      {"measurement": "IC50", "setting": "Cannabinoid receptor 1 [9]", "result": "6.66 µM (active)"},
      {"measurement": "EC50", "setting": "Cannabinoid receptor 2 [10]", "result": "> 32 µM (inactive)"}
    ]},
    {"smiles": "O=C1C(C2=C(O)c3ccccc3C2=O)=Nc2ccccc21", "values": [
      {"measurement": "CC50", "setting": "Vero", "result": "26.6 µM (active)"},
      {"measurement": "IC50", "setting": "Genome polyprotein", "result": "56.9 µM (active)"},
      {"measurement": "EC50", "setting": "Protein RecA", "result": "1.6 µM (active)"},
      {"measurement": "IC50", "setting": "[11]", "result": "1.31 µM (active)"},
      {"measurement": "EC50", "setting": "Hexokinase-1", "result": "37.1 µM (inactive)"},
      {"measurement": "EC50", "setting": "Hexokinase HKDC1", "result": "24.7 µM (inactive)"}
    ]},
    {"smiles": "CCCCCCCn1c(=N)n(CC(=O)c2ccco2)c2ccccc21", "values": [
      {"measurement": "EC50", "setting": "[12]", "result": "> 100 µM (inactive)"}
    ]}
  ]
}
